In patent US4913905A, “Transdermal therapeutic systems for active ingredient combinations” (priority 1987, dated 1990):

Experiments:
[1] = cited from earlier work
[2] = Therapeutically effective daily dose (oral / transdermal); assay type: in vivo; conditions: estimated values
endometrium carcinomas = conditions: following treatment; numerous studies in the USA; cited from earlier work
[3] = cited from earlier work; remark: listed apart in the source
[4] = In vitro flux through pig skin in a Franz diffusion cell (saturated ethanolic solution or system of Example 1); conditions: for skin permeation in vitro, alcoholic solution: saturated ethanolic solution
Experimental: The flux of progesterone and synthetic progestrone derivatives is measured in vitro as follows:
After 24 hours, an aliquot of the aqueous acceptor solution from the acceptor compartment is examined for content of the relevant progesterone derivative and, from this, the flux in μg cm^2 ×h is calculated.

[5] = vehicle of DE-A No. 3 205 258, e.g. ethanol gel; systems of acceptable size; cited from earlier work

Row | SMILES | therapeutically effective daily dose, oral [1] [mg] | therapeutically effective daily dose, transdermal [2] [mg] | skin permeation in vitro, alcoholic solution ([4]; pig skin, 24 hours) [μg/cm^2 · h] | other results
1 | CC(=O)O[C@]1(C(C)=O)CC[C@H]2[C@@H]3C[C@H](C)C4=CC(=O)CC[C@]4(C)[C@H]3CC[C@@]21C [medroxyprogesterone acetate] | 2.5 to 10 | 2 |  | 
2 | C[C@]12CC[C@@H]3c4ccc(O)cc4CC[C@H]3[C@@H]1CC[C@@H]2O [oestradiol, 17β-oestradiol] |  |  |  | times higher incidence of endometrium carcinomas (endometrium carcinomas): 3.3 to 6 times; resorption following oral administration [3]: unsatisfactory; undesirable side-effects ([3]; oral, high dosage, frequent occurrence): nausea, thromboembolism; metabolisation by the liver ([3]; oral): rapid
3 | CCCCC(=O)O[C@H]1CC[C@H]2[C@@H]3CCc4cc(O)ccc4[C@H]3CC[C@]12C [oestradiol valerate, estradiol-17-valerate] |  |  |  | times higher incidence of endometrium carcinomas (endometrium carcinomas): 3.3 to 6 times
4 | C#C[C@]1(O)CC[C@H]2[C@@H]3CCC4=CC(=O)CC[C@@H]4[C@H]3CC[C@@]21C [norethisterone] | 0.5 to 5 | 0.2 | 0.024 | necessary surface area of system ([4]; estimated values): 350 cm^2
5 | C#C[C@]1(O)CC[C@H]2[C@@H]3CCC4=CC(=O)CC[C@@H]4[C@H]3CC[C@@]21CC [d-norgestrel] | 0.07 to 0.15 | 0.05 | 0.028 | 
6 | CC(=O)[C@H]1CC[C@H]2[C@@H]3CCC4=CC(=O)CC[C@]4(C)[C@H]3CC[C@]12C [progesterone] | 100 to 300 | 2 | 3.0 | skin permeation in vitro, system according Example 1 ([4]; transdermal therapeutic system according to Example 1, pig skin, 24 hours): 0.073 μg/cm^2 · h; amount that passes through the skin for an adequate therapeutic effect [5]: not sufficient
7 | C#C[C@]1(OC(C)=O)CC[C@H]2[C@@H]3CCC4=CC(=O)CC[C@@H]4[C@H]3CC[C@@]21C [norethisterone acetate, norethisterone-17-acetate] | 0.5 to 5 | 2 |  | 
